Test results published in paper PMC7406649, “The rare sugar D-tagatose protects plants from downy mildews and is a safe fungicidal agrochemical” (Communications Biology, 2020).

Experiments:
Assay type in all cases: biochemical
[1] = biological target: T1, phosphomannose isomerase (LC500563) (Hyaloperonospora arabidopsidis, UniProt A0A7G1GEM8); assay: HPLC of ABEE-labelled products; conditions: 2.5 mM substrate, 10 mM MgCl2, pH 7.4, 30 °C, 6 h; products D-glucose 6-phosphate and D-mannose 6-phosphate
T1 construct: coding region in pColdI, His tag kept (45 kDa), expressed in E. coli SHuffle Express, HisTrap purified; equivalent to Hpa802576 of isolate Emoy2
T1 sequence (A0A7G1GEM8 1-415): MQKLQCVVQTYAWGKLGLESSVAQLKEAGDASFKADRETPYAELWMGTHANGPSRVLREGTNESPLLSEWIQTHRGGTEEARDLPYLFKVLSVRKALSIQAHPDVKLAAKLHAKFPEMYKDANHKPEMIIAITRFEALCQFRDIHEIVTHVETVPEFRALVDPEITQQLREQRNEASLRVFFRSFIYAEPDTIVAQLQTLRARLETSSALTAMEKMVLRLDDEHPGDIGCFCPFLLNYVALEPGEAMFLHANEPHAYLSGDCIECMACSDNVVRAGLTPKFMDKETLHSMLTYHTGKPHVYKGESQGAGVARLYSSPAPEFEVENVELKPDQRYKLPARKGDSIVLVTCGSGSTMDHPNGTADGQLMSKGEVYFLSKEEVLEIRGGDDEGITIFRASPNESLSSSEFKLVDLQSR

[2] = biological target: T1, phosphomannose isomerase (LC500563); assay: HPLC of ABEE-labelled products; D-glucose 6-phosphate formation; conditions: read-out: % inhibition at 37.5 mM
[3] = biological target: T1, phosphomannose isomerase (LC500563); assay: HPLC of ABEE-labelled products; D-mannose 6-phosphate formation; conditions: read-out: % inhibition at 37.5 mM
[4] = biological target: T2, fructokinase (LC500344) (Hyaloperonospora arabidopsidis, UniProt A0A7G1GEU5); assay: Dixon plot; coupled pyruvate kinase/lactate dehydrogenase NADH assay at […] nm; conditions: competitive with D-fructose (0.5-2.5 mM); 10-250 mM D-tagatose; 4 mM ATP, 8 mM MgCl2, pH 7.5, 25 °C; D-tagatose is also a substrate
T2 construct: coding region in pGEX5X-1, N-terminal GST tag kept (58 kDa with tag), expressed in E. coli SoluBL21, GSTrap purified; equivalent to Hpa812304 of isolate Emoy2
T2 sequence (A0A7G1GEU5 1-297): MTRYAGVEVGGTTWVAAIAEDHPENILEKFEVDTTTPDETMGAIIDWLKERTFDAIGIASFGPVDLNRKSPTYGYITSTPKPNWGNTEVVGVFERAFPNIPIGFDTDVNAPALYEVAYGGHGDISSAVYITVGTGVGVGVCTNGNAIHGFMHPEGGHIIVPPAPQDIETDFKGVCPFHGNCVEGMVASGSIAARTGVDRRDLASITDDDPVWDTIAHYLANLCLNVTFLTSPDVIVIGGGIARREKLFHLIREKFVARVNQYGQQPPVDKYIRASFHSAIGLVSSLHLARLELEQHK

Q: How did the “HPLC of ABEE-labelled products” value [1] turn out when O=P(O)(O)OC[C@H]1OC(O)(CO)[C@@H](O)[C@@H]1O (stereo partly drawn) [D-fructose 6-phosphate] was run?
A: both D-glucose 6-phosphate and D-mannose 6-phosphate were detected after the addition of D-fructose 6-phosphate

Q: What does the source list for O=P(O)(O)OC[C@H]1OC(O)(CO)[C@@H](O)[C@H]1O (stereo partly drawn) [D-tagatose 6-phosphate]?
A: inhibition at 37500 µM [2]: 38.2%; inhibition at 37500 µM [3]: 60.8%

Q: OCC1(O)OC[C@@H](O)[C@H](O)[C@@H]1O (stereo partly drawn) [D-tagatose] was tested. Which Ki [4] did it give?
A: 70 ± 5.14 mM
